One test relates to Arcanobacterium piogenes. The test can be described thus: MIC. Type of test: cell-based.
A further test has as its system Micrococcus luteus. The test can be described thus: MIC, liquid culture dilution. Format: cell-based.
The next test deals with Escherichia coli. The test can be described thus: MIC, liquid culture dilution (single chelates and cross-dilution combinations). Format: cell-based.
The next test relates to Salmonella enterica. Described as above. Type of test: cell-based, Salmonella enterica subp. Enterica serovar enteritidis.
The subject of another test is LACTIC ACID PRODUCERS
The test can be described thus: MIC, liquid culture dilution. Format: cell-based.

The subject of another test is Saccharomyces cerevisiae. The test can be described thus: MIC, liquid culture dilution. Format: cell-based.
The subject of the next test is Staphylococcus aureus. The test can be described thus: MIC, liquid culture dilution. Format: cell-based.
A further test concerns Streptococcus agalactiae. The test can be described thus: MIC, liquid culture dilution. Type of test: cell-based.
The test system of a further test is Clostridium perfringens. Type of test: cell-based.
In test [1] the test system is Brachyspira hyodysenteriae. The test can be described thus: MIC (single chelates and combinations).
In another test the test system is Lactococcus. The test can be described thus: Minimal lethal concentration (CID). Type of test: cell-based. Here is the method:
(§1) It is the concentration of the active ingredient that causes the complete death of the microbes. Under sterile conditions within a laminar box, a dilution series was prepared from the liquid culture mediums that were incubated for 24 hours, then from the dilution series 100 μl each was placed onto agar dishes and spread with a sterile glass rod. The incubation period is 24 hours under conditions favorable for the growth of the microbe, then the number of colonies on the agar dishes are counted.
(§2) In the case where no colonies are visible on the culture medium after the incubation, it indicates the microbe killing effect (CID) of the trace element chelate. The number of countable colonies grown on the agar dishes gives the actual MIC value of the given trace element chelate.

A further test deals with Salmonella. The test can be described thus: Minimal lethal concentration (CID). Type of test: cell-based. Here is the method:
as §1, §2

In another test the test system is S. tiphy. Format: cell-based.
The next test has as its system LSE. The test can be described thus: Minimal lethal concentration (CID). Type of test: cell-based, Saccharomyces cerevisiae. The method, then: as §1, §2
For another test, the system named is Clostridium. The test can be described thus: Minimal lethal concentration (CID). Type of test: cell-based. The method, then: as §1, §2
A further test concerns E. coli. An excerpt: The experimental animals had E. coli infection. The control group received the standard antibiotic supplement in the feed to control the E. coli infection.
[2] abbreviates: vs antibiotic-supplemented control.

Like-named read-outs stand apart in the source and are kept apart here. Where only a bound is given, the exact number is not on record here.

Data on eight compounds can be found in patent publication US10821093B2, “Antibacterial microelement chelates and the use thereof in animal feeds” (priority 2012, dated 2020).

Take `NCC(=O)[O-].[Ag+]` [Ag glycinate]: the “Minimal inhibitory concentration (MIC)” value in the test on Arcanobacterium piogenes was 184 ppm.

Take `NCC(=O)[O-].NCC(=O)[O-].O.[Cu+2]` [Copper (H2O) bis-glycinate]: the “Minimal inhibitory concentration (MIC)” value was found to be 60 ppm in the test on Micrococcus luteus; 300 ppm with Escherichia coli; 400 ppm in the test on Salmonella enterica; 800 ppm in the test on LACTIC ACID PRODUCERS; 800 ppm in the test with Saccharomyces cerevisiae; 5.3 ppm in the test on Staphylococcus aureus. The “Minimal inhibitory concentration (MIC)” value is listed as 171 ppm in the test on Streptococcus agalactiae, 100 ppm in the test on Clostridium perfringens, 32 ppm in the test with Arcanobacterium piogenes and 96 ppm in [1].

`NCC(=O)O.O=S(=O)([O-])[O-].[Zn+2]` [Zinc mono-glycinate, zinc mono-glycinate chelate]: the “Minimal inhibitory concentration (MIC)” value with Micrococcus luteus is 60 ppm; with Escherichia coli, 100 ppm; in the test on Salmonella enterica it was 100 ppm; with LACTIC ACID PRODUCERS, 800 ppm; in the test with Saccharomyces cerevisiae it was 800 ppm; in the test with Staphylococcus aureus it was 40 ppm. In addition, the “Minimal inhibitory concentration (MIC)” value is reported as 20 ppm with Staphylococcus aureus (listed as Zn mono-glycinate); 80 ppm in the test on Streptococcus agalactiae; 40 ppm with Streptococcus agalactiae (listed as Zn mono-glycinate); 210 ppm with Clostridium perfringens; over 4000 ppm in [1]. The CID concentration in the test on Lactococcus was 800 ppm; with Salmonella (Salmonella), 3000 ppm; with S. tiphy, 3000 ppm; with LSE, 800 ppm. The “CID value relative to MIC value” in the test with Salmonella (Salmonella strains) came out at 30 fold.

With `[NH2][Zn]([NH2])([O]C(=O)C(O)CC(=O)O)[O]C(=O)C(O)CC(=O)O` (stereo not shown) [Zn diammine bis-malate, Zn diammonium malate], the “Minimal inhibitory concentration (MIC)” value in the test on Escherichia coli was 80 ppm; in the test on Salmonella enterica, 120 ppm; in the test with LACTIC ACID PRODUCERS, 500 ppm; with Saccharomyces cerevisiae, 500 ppm; in the test with Staphylococcus aureus it was 80 ppm; in the test on Streptococcus agalactiae it was 20 ppm. Besides, the “Minimal inhibitory concentration (MIC)” value with Clostridium perfringens came to 340 ppm; in the test with Arcanobacterium piogenes, 21 ppm; in test [1], 2315 ppm.

For the compound Manganese mono-glycinate, the “Minimal inhibitory concentration (MIC)” value with Micrococcus luteus is reported as 100 ppm; in the test on Escherichia coli it was 300 ppm; with Salmonella enterica, 300 ppm; in the test on LACTIC ACID PRODUCERS, 1000 ppm; with Saccharomyces cerevisiae, 1000 ppm.

Take Zn(Glycine)2 [Zinc (H2O) bis-glycinate]: the “Minimal inhibitory concentration (MIC)” value in the test on Micrococcus luteus turned out to be 60 ppm; in the test with Escherichia coli it was 120 ppm; with Salmonella enterica, 220 ppm; with LACTIC ACID PRODUCERS it was 800 ppm; in the test with Saccharomyces cerevisiae, 500 ppm; in the test with Staphylococcus aureus it was 4 ppm. The “Minimal inhibitory concentration (MIC)” value with Streptococcus agalactiae was 29 ppm; with Clostridium perfringens, 180 ppm; in test [1], over 4000 ppm.

As to copper mono-glycinate chelate, the “Minimal inhibitory concentration (MIC)” value in the test with Micrococcus luteus is 200 ppm; in the test with Escherichia coli, 400 ppm; with Salmonella enterica, 400 ppm; in the test on LACTIC ACID PRODUCERS, 800 ppm; in the test with Saccharomyces cerevisiae, 800 ppm; in the test on Clostridium perfringens, 50 ppm. Also, the “Minimal inhibitory concentration (MIC)” value in the test with Arcanobacterium piogenes is recorded as 92 ppm; in test [1], 90 ppm. The figures for the CID concentration with Clostridium (Clostridium), in the test on Lactococcus and with LSE were 200 ppm, 800 ppm and 800 ppm, respectively. Further, in the test on Clostridium (Clostridium strains), the “CID value relative to MIC value” is reported as “twice as much”.

zinc ammonium maleinate: in the test on E. coli (38 days), the Daily weight gain worked out at 391 g and the Feed utilization was determined as 2.04 kg/kg. In addition, in the test on E. coli (38 days, initial weight 9.19 kg), the “Body weight at the end of the experiment” value turned out to be 24.05 kg. For the same compound, in the test on E. coli (setting [2]), the “Average daily weight gain higher than control group” value is 45% and the “Feed utilization better than control group” value came out at 13%.
